This note sets out measurements from patent US20080234304A1, “N3-Pyridyl-Thiamine And Its Use In Cancer Treatments” (AVEO PHARMACEUTICALS, INC., priority 2004, published 2008).

One data set relates to HCT116. Nature of the data set: inhibition of proliferation of HCT116 cells. In kind it is cell-based, human. The note with it: HCT116 colon carcinoma. Here is the method:
(§1) The ability of N3PT to inhibit proliferation of these cell lines was then tested. LAMA84 was the most sensitive to N3PT, displaying an IC50 of 0.3 μM. The other cell lines, HCT116 and K562, were less sensitive, displaying an IC50 of approximately 2 μM in both cases. LAMA84 also had the highest TK activity (per cell) among these three cancer lines.

The nature of data set [1]: brain penetration after a single dose in mice. The format is in vivo, mouse. Here is the method: To assess the ability of N3PT to inhibit transketolase in vivo, a single dose of N3PT was administered to Balb C nude mice (ip, 100 mg/kg), and blood and tissue samples were collected over time and enzymatic activities determined. Blood samples were taken (40 μl whole blood) serially or from sacrificed animals at the end of a study. Tissues, including tumor, brain, heart, kidney, liver, lung, spleen, were taken and flash frozen in liquid nitrogen or on dry ice and stored at −80° C. until assay. Blood was diluted into lysis buffer and dissolved. Tissues were suspended in lysis buffer and homogenized with PowerGen 125 (Fisher Scientific) while being submerged in an ice-water bath.

The subject of data set [2] is transketolase. Kind of data set: transketolase activity in blood and tissues of N3PT-treated mice. In kind it is in vivo, mouse. As to conditions: 200 mg/kg/day, relative to vehicle. As for the experimental part: (§2) […] Blood samples were taken (40 μl whole blood) serially or from sacrificed animals at the end of a study. Tissues, including tumor, brain, heart, kidney, liver, lung, spleen, were taken and flash frozen in liquid nitrogen or on dry ice and stored at −80° C. until assay. Blood was diluted into lysis buffer and dissolved. Tissues were suspended in lysis buffer and homogenized with PowerGen 125 (Fisher Scientific) while being submerged in an ice-water bath.
(§3) Transketolase assays were performed as in Example 2. The lysate was used right away or flash frozen and stored at −80° C. until assay. The protein concentration in the lysate was determined using a Bradford assay (BioRad) with BSA as a standard. The enzymatic velocity was normalized to the total protein concentration for inter-sample comparisons. In order to obtain reliable results across samples, it was important to have similar starting protein concentrations (such as within 30%). This was achieved by weighing the tissue before lysis so that the suspensions contained similar tissue/ml lysis buffer for all samples.

The target in data set [3] is T1, transketolase (Mus musculus, UniProt P40142).
T1 construct: from tissue; host or cells: whole blood, spleen, brain and other tissues of Balb C nude mice; also xenograft tumours
T1 sequence (P40142 1-623): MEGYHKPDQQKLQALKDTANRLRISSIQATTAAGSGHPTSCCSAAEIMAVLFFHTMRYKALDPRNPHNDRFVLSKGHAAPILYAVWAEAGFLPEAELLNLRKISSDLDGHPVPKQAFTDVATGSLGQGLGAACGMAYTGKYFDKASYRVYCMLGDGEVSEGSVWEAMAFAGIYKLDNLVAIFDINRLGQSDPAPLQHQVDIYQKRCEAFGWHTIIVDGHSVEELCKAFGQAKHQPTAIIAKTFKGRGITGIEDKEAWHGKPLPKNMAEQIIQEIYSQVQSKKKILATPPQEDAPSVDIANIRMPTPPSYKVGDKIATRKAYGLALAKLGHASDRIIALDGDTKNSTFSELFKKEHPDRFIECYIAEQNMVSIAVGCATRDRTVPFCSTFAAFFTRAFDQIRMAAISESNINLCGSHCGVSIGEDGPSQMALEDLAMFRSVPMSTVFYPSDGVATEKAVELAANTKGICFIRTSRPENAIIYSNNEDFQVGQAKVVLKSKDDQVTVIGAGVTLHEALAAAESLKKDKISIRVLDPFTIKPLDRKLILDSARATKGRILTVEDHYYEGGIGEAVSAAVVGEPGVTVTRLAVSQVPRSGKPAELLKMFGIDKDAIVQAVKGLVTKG
The description is as above. The format is in vivo. Here is the method:
as §2, §3

The target in data set [4] is T2, glucose-6-phosphate dehydrogenase (G6PDH) (Mus musculus, UniProt Q00612).
T2 construct: (G6PDH) in blood, spleen and brain after a single dose of N3PT in mice; from tissue; host or cells: blood, spleen and brain of Balb C nude mice
Kind of data set: G6PDH activity in blood and tissues of N3PT-treated mice. The format is in vivo.

Data set [5] can be described thus: overall animal weight and major organ weight of treated mice. In kind it is in vivo, mouse. The note with it: 200 mg/kg/day. Here is the method: A mouse xenograft model was used to evaluate the efficacy of N3PT in modulating tumor growth. Cancer cells (HCT-116 Luc+, comprising a stably transfected luciferase gene) were injected subcutaneously (10^6 cells) into Balb C nude mice on both flanks on day 7 prior to treatment. Tumors were allowed to grow to palpable size from test day 0, defined as the start of a treatment regime. N3PT was injected ip (intraperitoneally) at a given regimen (e.g., 200 mg/kg/day) and tumor size monitored by luminance intensity from day 0-7, caliper measurement after day 7, and by weight at the end of study, after the animals were sacrificed. See, e.g., Wang and El-Deiry, Cancer Biol Ther. 2(2):196-202 (2003); Ray et al., Cancer Res. 63(6):1160-5 (2003); see also, e.g., U.S. Pat. Nos. 6,416,960; 6,596,257; and 6,217,847.

The target of data set [6] is purified apotransketolase. Kind of data set: inhibition of purified apotransketolase. In kind it is biochemical. From the text: N3PT is a thiamine (vitamin B1) derivative. Thiamine pyrophosphate (TPP) is a co-factor for catalysis by the enzyme transketolase (as well as for the enzymes kGDH and PDH). […] A standard method for isolating and measuring the IC50 of apotransketolase is described in Konig et al., J. Biol. Chem. 269: 10879-82 (1994).

The test system of another data set is K562. Nature of the data set: inhibition of proliferation of K562 cells. In kind it is cell-based. The note with it: K562 CML line. Here is the method: as §1

Entries after “also recorded” stand apart in the source; their conditions may differ.

T2 sequence (Q00612 whole entry): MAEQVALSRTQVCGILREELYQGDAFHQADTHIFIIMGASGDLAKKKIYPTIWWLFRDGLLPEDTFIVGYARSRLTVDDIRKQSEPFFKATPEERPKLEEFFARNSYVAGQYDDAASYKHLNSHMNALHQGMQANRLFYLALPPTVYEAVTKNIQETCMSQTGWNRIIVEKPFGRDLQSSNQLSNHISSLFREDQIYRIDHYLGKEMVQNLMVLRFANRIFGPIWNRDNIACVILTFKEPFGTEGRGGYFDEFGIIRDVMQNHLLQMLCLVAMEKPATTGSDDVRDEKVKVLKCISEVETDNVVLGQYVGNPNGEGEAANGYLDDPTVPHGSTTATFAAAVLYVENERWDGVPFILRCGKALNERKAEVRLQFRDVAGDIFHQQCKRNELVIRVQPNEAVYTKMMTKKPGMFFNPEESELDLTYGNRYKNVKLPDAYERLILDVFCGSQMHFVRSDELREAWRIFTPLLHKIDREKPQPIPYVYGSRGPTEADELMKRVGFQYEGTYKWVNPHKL

For the compound `Cc1ccc(C[n+]2csc(CCO)c2C)c(N)n1` [N3PT, 3-[(2-amino-6-methyl-3-pyridinyl)methyl]-5-(2-hydroxyethyl)-4-methyl thiazolium], the half-inhibitory concentration (IC50) with HCT116 was around 2 µM; in data set [6], 0.021 µM; in the data set with K562 it was around 2 µM. In data set [1], the brain penetration result is “little or no significant brain penetration”. Besides, in the data set with transketolase [2], the “transketolase activity in tumors” value was “reduced”. Moreover, at transketolase [3] (200 mg/kg/day, relative to vehicle), the “transketolase activity in whole blood” value is “reduced; also recorded: selectively inhibited”. Further, the “sensitivity of spleen transketolase to N3PT on low-thiamine diet” value on transketolase [3] (diets with 16.5, 5, 1 or 0 mg/kg thiamine, N3PT ip, 12 hours later) is “enhances the sensitivity to N3PT inhibition of TK in spleen; also recorded: more sensitive to TK inhibition by N3PT”. Also, on transketolase [3] (single dose 100 mg/kg body weight, mouse, 100 mg/kg), the “selectivity of transketolase inhibition in vivo versus kGDH and G6PDH” value is given as “selective inhibitor of transketolase in vivo; also recorded: selectively inhibits transketolase”. In addition, the “duration of transketolase inhibition in vivo” value at transketolase [3] (single dose 100 mg/kg i.p., blood and spleen, 0-120 hr, 100 mg/kg) is “potent and long-lasting transketolase inhibitor in vivo”. Besides, in data set [4] (200 mg/kg/day, % of vehicle average), the “G6PDH activity after repeated treatment” value is recorded as “no effect on G6PDH activity”. Further, the “G6PDH activity after single dose” value in data set [4] (single dose 100 mg/kg i.p., blood, spleen, brain, 0-120 hr, 100 mg/kg) is “no effect on G6PDH in vivo; also recorded: little or no effect”. Also, the overall animal weight result in data set [5] (day 0, 6 and 11) was “no effect on overall animal weight; also recorded: did not affect”. Besides, in data set [5] (day 11 post treatment), the “major organ weight (brain, heart, kidney, liver, lung, spleen)” value is recorded as “no effect on major organ weight; also recorded: did not affect”.
